Measurements: US11053204B2, “Pyrimidinyloxy benzene derivatives as herbicides” (FMC Corporation, priority 2015, dated 2021)

Assays:
Assay type in all cases: in vivo
[1] = test system: barnyardgrass (Echinochloa crus-galli); test: Test B flooded paddy test, plant response rating; details: 250 g ai/ha; Flood; scale of 0 to 100 where 0 is no effect and 100 is complete control; 13 to 15 days
How it was run: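 Pots were flooded to 3 cm above the soil surface at treatment, compound applied directly to the paddy water, and that depth held throughout. Plants were kept in a greenhouse for 13 to 15 days, then visually rated against untreated controls.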

[2] = test system: blackgrass (Alopecurus myosuroides); test: Test C postemergence, plant response rating; details: for Blackgrass plant response rating: scale 0 to 100 (0 no effect, 100 complete control)
How it was run: (§1)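 Visual injury score, 0 = no effect, 100 = complete control, assigned against untreated controls after 13 to 15 d in the greenhouse. Compounds were applied in a surfactant-containing non-phytotoxic solvent mix, preemergence to seeded loam/sand or silt loam soil, or postemergence to 1- to 4-leaf plants (2 to 18 cm).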

[3] = test system: kochia (Kochia scoparia); test: Test C postemergence, plant response rating; details: for Kochia plant response rating: scale 0 to 100 (0 no effect, 100 complete control)
How it was run: as §1

[4] = test system: wheat (winter wheat, Triticum aestivum); test: Test C postemergence, plant response rating; details: for Wheat plant response rating: 125 g ai/ha, scale 0 to 100 (0 no effect, 100 complete control)
How it was run: as §1

[5] = test system: oilseed rape (Brassica napus); test: Test C postemergence, plant response rating; details: for Oilseed Rape plant response rating: scale 0 to 100 (0 no effect, 100 complete control)
How it was run: as §1

[6] = test system: nutsedge, yellow (yellow nutsedge, Cyperus esculentus); test: Test C postemergence, plant response rating; details: for Nutsedge, Yellow plant response rating: scale 0 to 100 (0 no effect, 100 complete control)
How it was run: as §1

[7] = test system: galium (catchweed bedstraw, Galium aparine); test: Test C postemergence, plant response rating; details: for Galium plant response rating: scale 0 to 100 (0 no effect, 100 complete control)
How it was run: as §1

[8] = test system: crabgrass, large (large crabgrass, Digitaria sanguinalis); test: Test C postemergence, plant response rating; details: for Crabgrass, Large plant response rating: scale 0 to 100 (0 no effect, 100 complete control)
How it was run: as §1

[9] = test system: morningglory (Ipomoea coccinea); test: Test C postemergence, plant response rating; details: for Morningglory plant response rating: scale 0 to 100 (0 no effect, 100 complete control)
How it was run: as §1

[10] = test system: corn (Zea mays); test: Test C postemergence, plant response rating; details: for Corn plant response rating: scale 0 to 100 (0 no effect, 100 complete control)
How it was run: as §1

[11] = test system: barnyardgrass (Echinochloa crus-galli); test: Test C postemergence, plant response rating; details: for Barnyardgrass plant response rating: scale 0 to 100 (0 no effect, 100 complete control)
How it was run: as §1

[12] = test system: giant foxtail (Setaria faberii); test: Test A preemergence, visual injury rating
How it was run: (§2)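 Visual injury scored 0–100 (100 = complete control) against untreated controls about 10 days after treatment in a greenhouse. Test chemicals, formulated with surfactant in non-phytotoxic solvent, were sprayed on soil preemergence or on 2-10 cm, one- to two-leaf plants postemergence.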

[13] = test system: kochia (Kochia scoparia); test: Test A preemergence, visual injury rating
How it was run: as §2

[14] = test system: pigweed (Amaranthus retroflexus); test: Test A preemergence, visual injury rating
How it was run: as §2

[15] = test system: Italian ryegrass (Lolium multiflorum); test: Test A preemergence, visual injury rating
How it was run: as §2

[16] = test system: ragweed (common ragweed, Ambrosia elatior); test: Test A preemergence, visual injury rating
How it was run: as §2

[17] = test system: barnyardgrass (Echinochloa crus-galli); test: Test A preemergence, visual injury rating
How it was run: as §2

[18] = 31 g ai/ha, 0 to 100 scale, 0 no effect, 100 complete control
[19] = 125 g ai/ha, 0 to 100 scale (0 no effect, 100 complete control)
[20] = 500 g ai/ha, 0 to 100 scale (0 no effect, 100 complete control)

Compound: N#CC(CCCC(F)(F)F)c1ccccc1Oc1ncc(Cl)cn1 (centres unmarked) [Compound 144]
- Plant response rating, Barnyardgrass [1]: 70
- Plant response rating, Blackgrass ([2]; 16 g ai/ha, scale of 0 to 100): 10
- Plant response rating, Blackgrass ([2]; 31 g ai/ha, scale 0 to 100): 10
- Blackgrass plant response rating ([2]; 62 g ai/ha): 15
- Blackgrass plant response rating ([2]; 125 g ai/ha): 15
- Plant response rating, Kochia ([3]; 16 g ai/ha, scale of 0 to 100): 85
- Plant response rating, Kochia ([3]; 31 g ai/ha, scale 0 to 100): 90
- Kochia plant response rating ([3]; 62 g ai/ha): 90
- Kochia plant response rating ([3]; 125 g ai/ha): 90
- Plant response rating, Wheat ([4]; 16 g ai/ha, scale of 0 to 100): 5
- Plant response rating, Wheat ([4]; 31 g ai/ha, scale 0 to 100): 5
- Wheat plant response rating [4]: 15
- Plant response rating, Oilseed Rape ([5]; 16 g ai/ha, scale of 0 to 100): 35
- Plant response rating, Oilseed Rape ([5]; 31 g ai/ha, scale 0 to 100): 35
- Oilseed Rape plant response rating ([5]; 62 g ai/ha): 70
- Oilseed Rape plant response rating ([5]; 125 g ai/ha): 85
- Plant response rating, Nutsedge, Yellow ([6]; 16 g ai/ha, scale of 0 to 100): 0
- Plant response rating, Nutsedge, Yellow ([6]; 31 g ai/ha, scale 0 to 100): 0
- Nutsedge, Yellow plant response rating ([6]; 62 g ai/ha): 10
- Nutsedge, Yellow plant response rating ([6]; 125 g ai/ha): 10
- Plant response rating, Galium ([7]; 16 g ai/ha, scale of 0 to 100): 50
- Plant response rating, Galium ([7]; 31 g ai/ha, scale 0 to 100): 70
- Galium plant response rating ([7]; 62 g ai/ha): 85
- Galium plant response rating ([7]; 125 g ai/ha): 90
- Plant response rating, Crabgrass, Large ([8]; 16 g ai/ha, scale of 0 to 100): 10
- Plant response rating, Crabgrass, Large ([8]; 31 g ai/ha, scale 0 to 100): 25
- Crabgrass, Large plant response rating ([8]; 62 g ai/ha): 20
- Crabgrass, Large plant response rating ([8]; 125 g ai/ha): 25
- Plant response rating, Morningglory ([9]; 16 g ai/ha, scale of 0 to 100): 30
- Plant response rating, Morningglory ([9]; 31 g ai/ha, scale 0 to 100): 20
- Morningglory plant response rating ([9]; 62 g ai/ha): 50
- Morningglory plant response rating ([9]; 125 g ai/ha): 60
- Plant response rating, Corn ([10]; 16 g ai/ha, scale of 0 to 100): 15
- Plant response rating, Corn ([10]; 31 g ai/ha, scale 0 to 100): 15
- Corn plant response rating ([10]; 62 g ai/ha): 20
- Corn plant response rating ([10]; 125 g ai/ha): 25
- Plant response rating, Barnyardgrass ([11]; 16 g ai/ha, scale of 0 to 100): 5
- Plant response rating, Barnyardgrass ([11]; 31 g ai/ha, scale 0 to 100): 5
- Barnyardgrass plant response rating ([11]; 62 g ai/ha): 10
- Barnyardgrass plant response rating ([11]; 125 g ai/ha): 10
- Plant response rating, Foxtail, Giant [12, 18]: 100
- Plant response rating, Foxtail, Giant [12, 19]: 100
- Plant response rating, Kochia [13, 18]: 90
- Plant response rating, Kochia [13, 19]: 100
- Plant response rating, Pigweed [14, 18]: 100
- Plant response rating, Pigweed [14, 19]: 100
- Plant response rating, Ryegrass, Italian [15, 18]: 20
- Plant response rating, Ryegrass, Italian [15, 19]: 70
- Plant response rating, Ragweed [16, 18]: 0
- Plant response rating, Ragweed [16, 19]: 10
- Plant response rating, Barnyardgrass [17, 18]: 80
- Plant response rating, Barnyardgrass [17, 19]: 100

Compound: O=C(CCCC(F)(F)F)c1c(Oc2ncc(Cl)cn2)cccc1C(F)(F)F [Compound 125]
- Plant response rating, Barnyardgrass [1]: 45
- Plant response rating, Blackgrass ([2]; 16 g ai/ha, scale 0 to 100): 10
- Plant response rating, Blackgrass ([2]; 31 g ai/ha, scale 0 to 100): 20
- Blackgrass plant response rating ([2]; 62 g ai/ha): 15
- Blackgrass plant response rating ([2]; 125 g ai/ha): 30
- Plant response rating, Kochia ([3]; 16 g ai/ha, scale of 0 to 100): 85
- Plant response rating, Kochia ([3]; 31 g ai/ha, scale 0 to 100): 90
- Kochia plant response rating ([3]; 62 g ai/ha): 95
- Kochia plant response rating ([3]; 125 g ai/ha): 98
- Plant response rating, Wheat ([4]; 16 g ai/ha, scale of 0 to 100): 5
- Plant response rating, Wheat ([4]; 31 g ai/ha, scale 0 to 100): 5
- Wheat plant response rating [4]: 25
- Plant response rating, Oilseed Rape ([5]; 16 g ai/ha, scale of 0 to 100): 80
- Plant response rating, Oilseed Rape ([5]; 31 g ai/ha, scale 0 to 100): 85
- Oilseed Rape plant response rating ([5]; 62 g ai/ha): 90
- Oilseed Rape plant response rating ([5]; 125 g ai/ha): 95
- Plant response rating, Nutsedge, Yellow ([6]; 16 g ai/ha, scale of 0 to 100): 5
- Plant response rating, Nutsedge, Yellow ([6]; 31 g ai/ha, scale 0 to 100): 5
- Nutsedge, Yellow plant response rating ([6]; 62 g ai/ha): 5
- Nutsedge, Yellow plant response rating ([6]; 125 g ai/ha): 10
- Plant response rating, Galium ([7]; 16 g ai/ha, scale of 0 to 100): 65
- Plant response rating, Galium ([7]; 31 g ai/ha, scale 0 to 100): 70
- Galium plant response rating ([7]; 62 g ai/ha): 80
- Galium plant response rating ([7]; 125 g ai/ha): 90
- Plant response rating, Crabgrass, Large ([8]; 16 g ai/ha, scale of 0 to 100): 10
- Plant response rating, Crabgrass, Large ([8]; 31 g ai/ha, scale 0 to 100): 10
- Crabgrass, Large plant response rating ([8]; 62 g ai/ha): 15
- Crabgrass, Large plant response rating ([8]; 125 g ai/ha): 20
- Plant response rating, Morningglory ([9]; 16 g ai/ha, scale of 0 to 100): 20
- Plant response rating, Morningglory ([9]; 31 g ai/ha, scale 0 to 100): 45
- Morningglory plant response rating ([9]; 62 g ai/ha): 50
- Morningglory plant response rating ([9]; 125 g ai/ha): 75
- Plant response rating, Corn ([10]; 16 g ai/ha, scale of 0 to 100): 10
- Plant response rating, Corn ([10]; 31 g ai/ha, scale 0 to 100): 10
- Corn plant response rating ([10]; 62 g ai/ha): 15
- Corn plant response rating ([10]; 125 g ai/ha): 20
- Plant response rating, Barnyardgrass ([11]; 16 g ai/ha, scale 0 to 100): 5
- Plant response rating, Barnyardgrass ([11]; 31 g ai/ha, scale 0 to 100): 5
- Barnyardgrass plant response rating ([11]; 62 g ai/ha): 5
- Barnyardgrass plant response rating ([11]; 125 g ai/ha): 10
- Plant response rating, Foxtail, Giant [12, 19]: 100
- Foxtail, Giant plant response rating [12, 20]: 100
- Plant response rating, Kochia [13, 19]: 100
- Kochia plant response rating [13, 20]: 100
- Plant response rating, Pigweed [14, 19]: 100
- Pigweed plant response rating [14, 20]: 100
- Plant response rating, Ryegrass, Italian [15, 19]: 70
- Ryegrass, Italian plant response rating [15, 20]: 100
- Plant response rating, Ragweed [16, 19]: 20
- Ragweed plant response rating [16, 20]: 40
- Plant response rating, Barnyardgrass [17, 19]: 100
- Barnyardgrass plant response rating [17, 20]: 100
